16 compounds from US20230093099A1, “COMPOUNDS AND METHODS OF TREATING CANCERS” (CULLGEN (SHANGHAI), INC., priority 2019, published 2023) can be followed below.

The experiment concerns RS4;11 cells. Nature of the experiment: Cell viability assay (CellTiter-Glo) in RS4;11 cells. The class given is cell-based. The note with it: Homo sapiens, 72 h; RS4;11 cells; cell viability, 3 days, CellTiter-Glo; read-out: IC50. Put shortly: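 Three-day compound treatment of RS4;11 ALL cells (5000/well, 3-fold dilution series of 8 or 12 points), with IC50 from a nonlinear least-squares fit to CellTiter-Glo viability data.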
(In general: In ATP-based viability assays light output follows the ATP content of the culture.)
The IC50 is the concentration that gives 50% inhibition. For `Cc1ncsc1-c1ccc(CNC(=O)[C@@H]2C[C@@H](O)CN2C(=O)[C@@H](NC(=O)CCCCCCC(=O)N2CCN(c3ccc(Nc4nc5cccc(-c6ccc(S(C)(=O)=O)cc6)n5n4)cc3)CC2)C(C)(C)C)cc1` [JA-062, (2S,4R)-1-((S)-3,3-Dimethyl-2-(8-(4-(4-((5-(4-(methylsulfonyl)phenyl)-[1,2,4]triazolo[1,5-a]pyridin-2-yl)amino)phenyl)piperazin-1-yl)-8-oxooctanamido)butanoyl)-4-hydroxy-N-(4-(4-methylthiazol-5-yl)benzyl)pyrrolidine-2-carboxamide], the IC50 is more than 10 µM. Take `Cc1ncsc1-c1ccc(CNC(=O)[C@@H]2C[C@@H](O)CN2C(=O)[C@@H](NC(=O)CCOCCOCCOCCOCCC(=O)N2CCN(c3ccc(Nc4nc5cccc(-c6ccc(S(C)(=O)=O)cc6)n5n4)cc3)CC2)C(C)(C)C)cc1` [JA-063, (2S,4R)-1-((S)-2-(tert-Butyl)-19-(4-(4-((5-(4-(methylsulfonyl)phenyl)-[1,2,4]triazolo[1,5-a]pyridin-2-yl)amino)phenyl)piperazin-1-yl)-4,19-dioxo-7,10,13,16-tetraoxa-3-azanonadecanoyl)-4-hydroxy-N-(4-(4-methylthiazol-5-yl)benzyl)pyrrolidine-2-carboxamide]: the IC50 was more than 10 µM. For `Cc1ncsc1-c1ccc(CNC(=O)[C@@H]2C[C@@H](O)CN2C(=O)[C@@H](NC(=O)COCCOCCOCC(=O)N2CCN(c3ccc(Nc4nc5cccc(-c6ccc(S(C)(=O)=O)cc6)n5n4)cc3)CC2)C(C)(C)C)cc1` [JA-064, (2S,4R)-1-((S)-2-(tert-Butyl)-14-(4-(4-((5-(4-(methylsulfonyl)phenyl)-[1,2,4]triazolo[1,5-a]pyridin-2-yl)amino)phenyl)piperazin-1-yl)-4,14-dioxo-6,9,12-trioxa-3-azatetradecanoyl)-4-hydroxy-N-(4-(4-methylthiazol-5-yl)benzyl)pyrrolidine-2-carboxamide] the value was more than 10 µM. `Cc1ncsc1-c1ccc(CNC(=O)[C@@H]2C[C@@H](O)CN2C(=O)[C@@H](NC(=O)CCCCCCCC(=O)N2CCN(c3ccc(Nc4nc5cccc(-c6ccc(S(C)(=O)=O)cc6)n5n4)cc3)CC2)C(C)(C)C)cc1` [JA-065, (2S,4R)-1-((S)-3,3-Dimethyl-2-(9-(4-(4-((5-(4-(methylsulfonyl)phenyl)-[1,2,4]triazolo[1,5-a]pyridin-2-yl)amino)phenyl)piperazin-1-yl)-9-oxononanamido)butanoyl)-4-hydroxy-N-(4-(4-methylthiazol-5-yl)benzyl)pyrrolidine-2-carboxamide]: the IC50 amounted to 0.872 µM. Next, `Cc1ncsc1-c1ccc(CNC(=O)[C@@H]2C[C@@H](O)CN2C(=O)[C@@H](NC(=O)CCCC(=O)N2CCN(c3ccc(Nc4nc5cccc(-c6ccc(S(C)(=O)=O)cc6)n5n4)cc3)CC2)C(C)(C)C)cc1` [JA-066, (2S,4R)-1-((S)-3,3-Dimethyl-2-(5-(4-(4-((5-(4-(methylsulfonyl)phenyl)-[1,2,4]triazolo[1,5-a]pyridin-2-yl)amino)phenyl)piperazin-1-yl)-5-oxopentanamido)butanoyl)-4-hydroxy-N-(4-(4-methylthiazol-5-yl)benzyl)pyrrolidine-2-carboxamide]: more than 10 µM. Next, `Cc1ncsc1-c1ccc(CNC(=O)[C@@H]2C[C@@H](O)CN2C(=O)[C@@H](NC(=O)CCCCCCCCC(=O)N2CCN(c3ccc(Nc4nc5cccc(-c6ccc(S(C)(=O)=O)cc6)n5n4)cc3)CC2)C(C)(C)C)cc1` [JA-067, (2S,4R)-1-((S)-3,3-Dimethyl-2-(10-(4-(4-((5-(4-(methylsulfonyl)phenyl)-[1,2,4]triazolo[1,5-a]pyridin-2-yl)amino)phenyl)piperazin-1-yl)-10-oxodecanamido)butanoyl)-4-hydroxy-N-(4-(4-methylthiazol-5-yl)benzyl)pyrrolidine-2-carboxamide]: 3.85 µM; `Cc1ncsc1-c1ccc(CNC(=O)[C@@H]2C[C@@H](O)CN2C(=O)[C@@H](NC(=O)CCOCCOCCOCCC(=O)N2CCN(c3ccc(Nc4nc5cccc(-c6ccc(S(C)(=O)=O)cc6)n5n4)cc3)CC2)C(C)(C)C)cc1` [JA-068, (2S,4R)-1-((S)-2-(tert-Butyl)-16-(4-(4-((5-(4-(methylsulfonyl)phenyl)-[1,2,4]triazolo[1,5-a]pyridin-2-yl)amino)phenyl)piperazin-1-yl)-4,16-dioxo-7,10,13-trioxa-3-azahexadecanoyl)-4-hydroxy-N-(4-(4-methylthiazol-5-yl)benzyl)pyrrolidine-2-carboxamide]: more than 10 µM; `Cc1ncsc1-c1ccc(CNC(=O)[C@@H]2C[C@@H](O)CN2C(=O)[C@@H](NC(=O)CCC(=O)N2CCN(c3ccc(Nc4nc5cccc(-c6ccc(S(C)(=O)=O)cc6)n5n4)cc3)CC2)C(C)(C)C)cc1` [JA-069, (2S,4R)-1-((S)-3,3-Dimethyl-2-(4-(4-(4-((5-(4-(methylsulfonyl)phenyl)-[1,2,4]triazolo[1,5-a]pyridin-2-yl)amino)phenyl)piperazin-1-yl)-4-oxobutanamido)butanoyl)-4-hydroxy-N-(4-(4-methylthiazol-5-yl)benzyl)pyrrolidine-2-carboxamide]: more than 10 µM. Next, `Cc1ncsc1-c1ccc(CNC(=O)[C@@H]2C[C@@H](O)CN2C(=O)[C@@H](NC(=O)CCOCCOCCC(=O)N2CCN(c3ccc(Nc4nc5cccc(-c6ccc(S(C)(=O)=O)cc6)n5n4)cc3)CC2)C(C)(C)C)cc1` [JA-070, (2S,4R)-1-((S)-3,3-Dimethyl-2-(3-(2-(3-(4-(4-((5-(4-(methylsulfonyl)phenyl)-[1,2,4]triazolo[1,5-a]pyridin-2-yl)amino)phenyl)piperazin-1-yl)-3-oxopropoxy)ethoxy)propanamido)butanoyl)-4-hydroxy-N-(4-(4-methylthiazol-5-yl)benzyl)pyrrolidine-2-carboxamide]: 2.75 µM.

For `Cc1ncsc1-c1ccc(CNC(=O)[C@@H]2C[C@@H](O)CN2C(=O)[C@@H](NC(=O)CCOCCOCCOCCOCCOCCC(=O)N2CCN(c3ccc(Nc4nc5cccc(-c6ccc(S(C)(=O)=O)cc6)n5n4)cc3)CC2)C(C)(C)C)cc1` [JA-071, (2S,4R)-1-((S)-2-(tert-Butyl)-22-(4-(4-((5-(4-(methylsulfonyl)phenyl)-[1,2,4]triazolo[1,5-a]pyridin-2-yl)amino)phenyl)piperazin-1-yl)-4,22-dioxo-7,10,13,16,19-pentaoxa-3-azadocosanoyl)-4-hydroxy-N-(4-(4-methylthiazol-5-yl)benzyl)pyrrolidine-2-carboxamide], the IC50 is 0.96 µM.

As for `Cc1ncsc1-c1ccc(CNC(=O)[C@@H]2C[C@@H](O)CN2C(=O)[C@@H](NC(=O)COCC(=O)N2CCN(c3ccc(Nc4nc5cccc(-c6ccc(S(C)(=O)=O)cc6)n5n4)cc3)CC2)C(C)(C)C)cc1` [JA-072, (2S,4R)-1-((S)-3,3-Dimethyl-2-(2-(2-(4-(4-((5-(4-(methylsulfonyl)phenyl)-[1,2,4]triazolo[1,5-a]pyridin-2-yl)amino)phenyl)piperazin-1-yl)-2-oxoethoxy)acetamido)butanoyl)-4-hydroxy-N-(4-(4-methylthiazol-5-yl)benzyl)pyrrolidine-2-carboxamide], the IC50 was 6.46 µM.

With `Cc1ncsc1-c1ccc(CNC(=O)[C@@H]2C[C@@H](O)CN2C(=O)[C@@H](NC(=O)COCCOCC(=O)N2CCN(c3ccc(Nc4nc5cccc(-c6ccc(S(C)(=O)=O)cc6)n5n4)cc3)CC2)C(C)(C)C)cc1` [JA-073, (2S,4R)-1-((S)-3,3-Dimethyl-2-(2-(2-(2-(4-(4-((5-(4-(methylsulfonyl)phenyl)-[1,2,4]triazolo[1,5-a]pyridin-2-yl)amino)phenyl)piperazin-1-yl)-2-oxoethoxy)ethoxy)acetamido)butanoyl)-4-hydroxy-N-(4-(4-methylthiazol-5-yl)benzyl)pyrrolidine-2-carboxamide], the IC50 was 4.59 µM. With `Cc1ncsc1-c1ccc(CNC(=O)[C@@H]2C[C@@H](O)CN2C(=O)[C@@H](NC(=O)CCCCC(=O)N2CCN(c3ccc(Nc4nc5cccc(-c6ccc(S(C)(=O)=O)cc6)n5n4)cc3)CC2)C(C)(C)C)cc1` [JA-074, (2S,4R)-1-((S)-3,3-Dimethyl-2-(6-(4-(4-((5-(4-(methylsulfonyl)phenyl)-[1,2,4]triazolo[1,5-a]pyridin-2-yl)amino)phenyl)piperazin-1-yl)-6-oxohexanamido)butanoyl)-4-hydroxy-N-(4-(4-methylthiazol-5-yl)benzyl)pyrrolidine-2-carboxamide], the IC50 was more than 10 µM.

On to `CS(=O)(=O)c1ccc(-c2cccc3nc(Nc4ccc(N5CCN(C(=O)CCOCCOCCNc6cccc7c6C(=O)N(C6CCC(=O)NC6=O)C7=O)CC5)cc4)nn23)cc1` (stereo not shown) [JA-075, 2-(2,6-Dioxopiperidin-3-yl)-4-((2-(2-(3-(4-(4-((5-(4-(methylsulfonyl)phenyl)-[1,2,4]triazolo[1,5-a]pyridin-2-yl)amino)phenyl)piperazin-1-yl)-3-oxopropoxy)ethoxy)ethyl)amino)isoindoline-1,3-dione], for which the IC50 worked out at 2.43 µM. For `Cc1ncsc1-c1ccc(CNC(=O)[C@@H]2C[C@@H](O)CN2C(=O)[C@@H](NC(=O)CCCCCC(=O)N2CCN(c3ccc(Nc4nc5cccc(-c6ccc(S(C)(=O)=O)cc6)n5n4)cc3)CC2)C(C)(C)C)cc1` [JA-076, (2S,4R)-1-((S)-3,3-Dimethyl-2-(7-(4-(4-((5-(4-(methylsulfonyl)phenyl)-[1,2,4]triazolo[1,5-a]pyridin-2-yl)amino)phenyl)piperazin-1-yl)-7-oxoheptanamido)butanoyl)-4-hydroxy-N-(4-(4-methylthiazol-5-yl)benzyl)pyrrolidine-2-carboxamide] the value was more than 10 µM; for `CS(=O)(=O)c1ccc(-c2cccc3nc(Nc4ccc(N5CCN(C(=O)CCOCCOCCOCCOCCOCCNc6cccc7c6C(=O)N(C6CCC(=O)NC6=O)C7=O)CC5)cc4)nn23)cc1` (stereo not shown) [JA-077, 2-(2,6-Dioxo-piperidin-3-yl)-4-(2-{2-[2-(2-{2-[3-(4-{4-[5-(4-methanesulfonyl-phenyl)-[1,2,4]triazolo[1,5-a]pyridin-2-ylamino]-phenyl}-piperazin-1-yl)-3-oxo-propoxy]-ethoxy}-ethoxy)-ethoxy]-ethoxy}-ethylamino)-isoindole-1,3-dione], 0.407 µM.
